Results: US4110474A, “Tetramethylpentane blood substitutes” (Suntech, Inc., priority 1977, dated 1978)
Like-named read-outs stand apart in the source and are kept apart here.

Settings: mouse, in vivo
Protocol: Mice were injected with the various emulsions. The mice were killed at intervals thereafter, the liver and spleen analyzed, and the percentage of original amount of PF material injected and still in the liver and spleen was determined.

perfluoromethylpentane
body retention: lack body retention characteristics | % FC (Of Injected Dose) in LIVER (2880 min): 15% | % FC (Of Injected Dose) in SPLEEN (2880 min): 1.4% | % FC (Of Injected Dose) in LIVER (10080 min): 12% | % FC (Of Injected Dose) in SPLEEN (10080 min): 6% | % FC (Of Injected Dose) in LIVER (20160 min): 9.3% | % FC (Of Injected Dose) in SPLEEN (20160 min): 9.2% | % FC (Of Injected Dose) in LIVER (41760 min): 2.3% | % FC (Of Injected Dose) in SPLEEN (41760 min): 2.7%
